In PubChem BioAssay AID330 (DTP/NCI, 2004):
Several values for one entry are separate records, joined by “and”; a condition that tells them apart may be missing. Identical values can stand only once. Inconclusive results and toxic doses are left out. Peptide text beside a SMILES is read from it. * marks the point of attachment. Cbz = O=C(OCc1ccccc1)*; OtBu = CC(C)(C)O*

Tested on: P388 leukemia ip, CD2F1 mice, survival T/C
Experiment: NCI In Vivo Anticancer Drug Screen. Data for tumor model P388 Leukemia (intraperitoneal) in CD2F1 (CDF1) mice
Conditions: endpoint: median survival time, higher = longer survival
Method in brief: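 Mice carrying the transplanted tumor received test compound or vehicle. Survival was recorded in each group, and the value is the treated-group measurement divided by that of the vehicle-treated control group.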

[1] = dose: 60.0 mg/kg/injection, schedule: Q01DX005 (ip), vehicle: saline
[2] = dose: 100.0 mg/kg/injection, schedule: Q01DX009 (ip), vehicle: saline with Tween-80
[3] = dose: 200.0 mg/kg/injection, schedule: Q01DX009 (ip), vehicle: saline with Tween-80
[4] = dose: 15.0 mg/kg/injection, schedule: Q01DX005 (ip), vehicle: saline with Tween-80
[5] = dose: 30.0 mg/kg/injection, schedule: Q01DX005 (ip), vehicle: saline with Tween-80
[6] = dose: 60.0 mg/kg/injection, schedule: Q01DX005 (ip), vehicle: saline with Tween-80
[7] = dose: 120.0 mg/kg/injection, schedule: Q01DX005 (ip), vehicle: saline with Tween-80
[8] = dose: 240.0 mg/kg/injection, schedule: Q01DX005 (ip), vehicle: saline with Tween-80
[9] = dose: 50.0 mg/kg/injection, schedule: Q01DX005 (ip), vehicle: saline with Tween-80
[10] = dose: 100.0 mg/kg/injection, schedule: Q01DX005 (ip), vehicle: saline with Tween-80
[11] = dose: 200.0 mg/kg/injection, schedule: Q01DX005 (ip), vehicle: saline with Tween-80
[12] = dose: 50.0 mg/kg/injection, schedule: Q01DX009 (ip), vehicle: saline with Tween-80
[13] = dose: 100.0 mg/kg/injection, schedule: Q01DX005 (ip), vehicle: Klucel (hydroxypropylcellulose) (HPC)
[14] = dose: 12.5 mg/kg/injection, schedule: Q01DX005 (ip), vehicle: saline with Tween-80
[15] = dose: 25.0 mg/kg/injection, schedule: Q01DX005 (ip), vehicle: saline with Tween-80

For N=C1C(O)=CC(=O)C(O)=C1C(=O)O, the T/C [1] was 104 % of control, the T/C (dose: 120.0 mg/kg/injection, schedule: Q01DX005 (ip), vehicle: saline) was 103 % of control and the T/C (dose: 240.0 mg/kg/injection, schedule: Q01DX005 (ip), vehicle: saline) was 101 % of control.

For Cc1[nH]nc2c(Cc3ccc([N+](=O)[O-])cc3)n[nH]c(=O)c12, the T/C (dose: 100.0 mg/kg/injection, schedule: Q04DX002 (ip), vehicle: Klucel (hydroxypropylcellulose) (HPC)) was 92 % of control, the T/C (dose: 200.0 mg/kg/injection, schedule: Q04DX002 (ip), vehicle: Klucel (hydroxypropylcellulose) (HPC)) was 87 % of control and the T/C (dose: 400.0 mg/kg/injection, schedule: Q04DX002 (ip), vehicle: Klucel (hydroxypropylcellulose) (HPC)) was 92 % of control.

In the case of CO[C@H]1/C=C/O[C@@]2(C)Oc3c(C)c(O)c4c(O)c(c(/C=N/N5CCNCC5)c(O)c4c3C2=O)NC(=O)/C(C)=C\C=C\[C@H](C)[C@H](O)[C@@H](C)[C@@H](O)[C@@H](C)C(OC(C)=O)[C@@H]1C (stereo not given in full), the T/C [2] is reported as 95 % of control, the T/C (dose: 100.0 mg/kg/injection, schedule: Q04DX003 (ip), vehicle: saline with Tween-80) is reported as 91 % of control and the T/C [3] is reported as 104 % of control. The T/C (dose: 200.0 mg/kg/injection, schedule: Q04DX003 (ip), vehicle: saline with Tween-80) was 91 % of control and the T/C (dose: 400.0 mg/kg/injection, schedule: Q04DX003 (ip), vehicle: saline with Tween-80) was 100 % of control.

O=c1[nH]cc(Cn2cccc3c(=O)ncnc2-3)c(=O)[nH]1 was tested, and the T/C (dose: 100.0 mg/kg/injection, schedule: Q01DX001 (ip), vehicle: suspension in saline) was 93 % of control and the T/C (dose: 200.0 mg/kg/injection, schedule: Q01DX001 (ip), vehicle: suspension in saline) was 102 % of control.

In the case of Clc1ccccc1-c1nnc(-c2cccc(-c3nnc(-c4ccccc4Cl)o3)n2)o1, the T/C (dose: 7.5 mg/kg/injection, schedule: Q01DX005 (ip), vehicle: saline with Tween-80) is reported as 89 % of control, the T/C [4] is reported as 91 % of control and the T/C [5] is reported as 89 % of control. For the same molecule, the T/C [6] was 101 % of control, the T/C [7] was 97 % of control and the T/C [8] was 104 % of control.

In the case of CC(C)(C)OC(=O)CCC(NC(=O)C(CCC(=O)OC(C)(C)C)NC(=O)C(CCC(=O)OC(C)(C)C)NC(=O)OCc1ccccc1)C(=O)O (stereo not given) (Cbz-Glu(OtBu)-Glu(OtBu)-Glu(OtBu)-OH; configuration not given here), the T/C [9] is reported as 104 % of control, the T/C [10] is reported as 100 % of control and the T/C [11] is reported as 96 % of control.

In the case of CCOCC1COc2c(cc3[nH]cc(C(=O)O)c(=O)c3c2Cl)O1 (stereo not given), the T/C [12] is reported as 95 % of control, the T/C [2] is reported as 93 % of control and the T/C [3] is reported as 95 % of control.

CCn1c(Cl)c(/C=N/NC(N)=S)c2cccc(/C=N\NC(N)=S)c21 was tested, and the T/C (dose: 100.0 mg/kg/injection, schedule: Q01DX001 (ip), vehicle: Klucel (hydroxypropylcellulose) (HPC)) was 97 % of control, the T/C (dose: 200.0 mg/kg/injection, schedule: Q01DX001 (ip), vehicle: Klucel (hydroxypropylcellulose) (HPC)) was 87 % of control and the T/C (dose: 400.0 mg/kg/injection, schedule: Q01DX001 (ip), vehicle: Klucel (hydroxypropylcellulose) (HPC)) was 97 % of control.

In the case of O=[N+]([O-])[O-].OCCNCCNCC[OH2+].OCCNCCNCC[OH2+].[Ni+2], the T/C (dose: 3.13 mg/kg/injection, schedule: Q01DX009 (ip), vehicle: saline) is reported as 88 % of control, the T/C (dose: 6.25 mg/kg/injection, schedule: Q01DX009 (ip), vehicle: saline) is reported as 90 % of control and the T/C (dose: 12.5 mg/kg/injection, schedule: Q01DX009 (ip), vehicle: saline) is reported as 102 % of control and 86 % of control.

CN1c2ccccc2S(=O)(=O)n2c(CCc3ccccc3)nnc21 was tested, and the T/C [4] was 103 % of control, the T/C [5] was 100 % of control and the T/C [6] was 87 % of control and 97 % of control. For the same molecule, the T/C [8] was 90 % of control.

For CC1(C)CC(=O)C(C(c2ccc3c(c2)OCO3)N2CCOCC2)C(=O)C1 (stereo not given), the T/C (dose: 60.0 mg/kg/injection, schedule: Q01DX005 (ip), vehicle: Klucel (hydroxypropylcellulose) (HPC)) was 117 % of control and the T/C (dose: 120.0 mg/kg/injection, schedule: Q01DX005 (ip), vehicle: Klucel (hydroxypropylcellulose) (HPC)) was 109 % of control.

In the case of CC(/C=C/c1ccccc1)=N\NC(=O)c1ccccc1, the T/C (dose: 6.25 mg/kg/injection, schedule: Q01DX005 (ip), vehicle: Klucel (hydroxypropylcellulose) (HPC)) is reported as 108 % of control, the T/C (dose: 12.5 mg/kg/injection, schedule: Q01DX005 (ip), vehicle: Klucel (hydroxypropylcellulose) (HPC)) is reported as 97 % of control and the T/C (dose: 25.0 mg/kg/injection, schedule: Q01DX005 (ip), vehicle: Klucel (hydroxypropylcellulose) (HPC)) is reported as 100 % of control and 108 % of control and 96 % of control. The T/C [13] was 112 % of control.

In the case of CC1CN2CC(C)O[Si](CC[Si](C)(C)C)(O1)OC(C)C2 (stereo not given), the T/C (dose: 50.0 mg/kg/injection, schedule: Q01DX005 (ip), vehicle: Klucel (hydroxypropylcellulose) (HPC)) is reported as 104 % of control and the T/C [13] is reported as 90 % of control.

With CCCCCCCCCCCCCCN1CCCN(CCCCCCCCCCCCCC)CC1 the T/C [6] was 92 % of control, the T/C [7] was 94 % of control and the T/C [8] was 88 % of control.

With NCC12CC3CC(CC(C3)C1)C2 the T/C (dose: 12.5 mg/kg/injection, schedule: Q01DX009 (ip), vehicle: saline with Tween-80) was 103 % of control, the T/C (dose: 25.0 mg/kg/injection, schedule: Q01DX009 (ip), vehicle: saline with Tween-80) was 102 % of control and the T/C [12] was 100 % of control and 102 % of control.

For CCOC(=O)c1c(-c2ccccc2)nn(CC(N)=O)c1CO, the T/C [9] was 100 % of control, the T/C [10] was 105 % of control and the T/C [11] was 103 % of control.

In the case of COC(=O)C1=CO[C@@H](OC2OC(CO)C(O)C(O)C2O)[C@@H]2[C@@H](C)[C@@H](O)C[C@H]12 (stereo not given in full), the T/C (dose: 1.13 mg/kg/injection, schedule: Q01DX005 (ip), vehicle: water) is reported as 100 % of control, the T/C (dose: 2.25 mg/kg/injection, schedule: Q01DX005 (ip), vehicle: water) is reported as 99 % of control and the T/C (dose: 4.5 mg/kg/injection, schedule: Q01DX005 (ip), vehicle: water) is reported as 93 % of control. For the same molecule, the T/C (dose: 9.0 mg/kg/injection, schedule: Q01DX005 (ip), vehicle: water) was 95 % of control.

CCN(CC)CCCCCCCCOC(=O)c1cc(OC)c(OC)c(OC)c1 was tested, and the T/C (dose: 12.5 mg/kg/injection, schedule: Q01DX005 (ip), vehicle: saline) was 101 % of control, the T/C (dose: 25.0 mg/kg/injection, schedule: Q01DX005 (ip), vehicle: saline) was 97 % of control and the T/C (dose: 50.0 mg/kg/injection, schedule: Q01DX005 (ip), vehicle: saline) was 96 % of control. For the same molecule, the T/C [1] was 99 % of control.

With N#Cc1cc([N+](=O)[O-])cnc1Sc1ncccn1 the T/C (dose: 6.25 mg/kg/injection, schedule: Q01DX009 (ip), vehicle: Klucel (hydroxypropylcellulose) (HPC)) was 108 % of control, the T/C (dose: 12.5 mg/kg/injection, schedule: Q01DX009 (ip), vehicle: Klucel (hydroxypropylcellulose) (HPC)) was 104 % of control and the T/C (dose: 25.0 mg/kg/injection, schedule: Q01DX009 (ip), vehicle: Klucel (hydroxypropylcellulose) (HPC)) was 90 % of control.

Oc1ccc(Nc2ccnc3cc(Cl)ccc23)cc1CN(CCCl)CCCl was tested, and the T/C (dose: 0.16 mg/kg/injection, schedule: Q01DX009 (ip), vehicle: saline) was 119 % of control, the T/C (dose: 0.31 mg/kg/injection, schedule: Q01DX009 (ip), vehicle: saline) was 123 % of control and the T/C (dose: 0.63 mg/kg/injection, schedule: Q01DX009 (ip), vehicle: saline) was 150 % of control. For the same molecule, the T/C (dose: 1.25 mg/kg/injection, schedule: Q01DX009 (ip), vehicle: saline) was 101 % of control and the T/C (dose: 2.5 mg/kg/injection, schedule: Q01DX009 (ip), vehicle: saline) was 153 % of control and 156 % of control.

With O=[C-]/C=C\[C-]=O.[C-]#[O+].[C-]#[O+].[C-]#[O+].[C-]#[O+].[Fe+2] the T/C [14] was 112 % of control, the T/C [15] was 110 % of control and the T/C [9] was 100 % of control.

In the case of O=C1NC(=O)N(c2ccc([N+](=O)[O-])cc2)C1=O, the T/C (dose: 50.0 mg/kg/injection, schedule: Q01DX009 (ip), vehicle: Klucel (hydroxypropylcellulose) (HPC)) is reported as 86 % of control, the T/C (dose: 100.0 mg/kg/injection, schedule: Q01DX009 (ip), vehicle: Klucel (hydroxypropylcellulose) (HPC)) is reported as 89 % of control and the T/C (dose: 200.0 mg/kg/injection, schedule: Q01DX009 (ip), vehicle: Klucel (hydroxypropylcellulose) (HPC)) is reported as 86 % of control (2×) and 93 % of control.

Cc1c(O)ccc(N=O)c1O was tested, and the T/C (dose: 6.25 mg/kg/injection, schedule: Q01DX005 (ip), vehicle: saline with Tween-80) was 98 % of control, the T/C [14] was 94 % of control and the T/C [15] was 90 % of control. The T/C [9] was 93 % of control.

With CCN(CC)[P+](c1ccccc1O)(N(CC)CC)N(CC)CC the T/C (dose: 1.56 mg/kg/injection, schedule: Q01DX009 (ip), vehicle: saline) was 100 % of control and the T/C (dose: 3.12 mg/kg/injection, schedule: Q01DX009 (ip), vehicle: saline) was 101 % of control.
